Measurements published in patent publication US20100317621A1, “BETA-LACTAMASE INHIBITORS” (priority 2007, published 2010).
Structures can show the parent of a compound that is named as a salt. Where two headings read alike, the source gives them in different places.

How the values were obtained:
Assay in all cases: biochemical
SHV-5 β-lactamase = target: T1, SHV-5 β-lactamase (Klebsiella pneumoniae, UniProt P0A3M1); format: biochemical, Escherichia coli
T1 construct: The β-lactamases were extracted by four cycles of freezing and thawing followed by centrifugation; endogenous in cells; host or cells: Escherichia coli cells containing SHV-5 (crude freeze-thaw extract)
T1 sequence (P0A3M1 22-286): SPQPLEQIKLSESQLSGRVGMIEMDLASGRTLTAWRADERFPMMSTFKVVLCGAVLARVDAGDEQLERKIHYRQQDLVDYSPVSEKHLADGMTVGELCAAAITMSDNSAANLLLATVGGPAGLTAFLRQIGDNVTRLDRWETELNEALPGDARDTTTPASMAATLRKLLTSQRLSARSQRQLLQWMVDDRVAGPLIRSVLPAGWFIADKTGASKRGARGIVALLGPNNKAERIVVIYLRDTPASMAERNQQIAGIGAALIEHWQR
Experimental: (§1) Isolation of β-lactamases. Crude β-lactamase extracts were prepared from 20 ml overnight cultures with shaking. Escherichia coli cells containing SHV-5 or CTXM-15 and Enterobacter cloacae cells containing P99 were further diluted 10-fold and grown to mid-log phase (OD at 600 nm, 0.5-0.8) in Mueller-Hinton II (MH-II) broth at 37° C. The cells were pelleted at 5000 g, washed and resuspended in 2 mL PBS pH 7.0. The β-lactamases were extracted by four cycles of freezing and thawing followed by centrifugation. β-lactamase activity in the extracts was measured with the chromogenic cephalosporin nitrocefin. The amount of protein in each β-lactamase preparation was determined by the bicinchoninic acid (BCA) assay.
(§2) β-lactamase Inhibition. To determine the level of inhibition of β-lactamase enzymes, compounds were diluted in PBS at pH 7.0 to yield concentrations between 100 and 0.005 μM in microtiter plates. An equal volume of diluted enzyme stock was added, and the plates were incubated at 37° C. for 10 min. Nitrocefin solution was then dispensed as substrate into each well at a final concentration of 100 μM, and the plates were immediately read with the kinetic program at 486 nm for 10 min on the SPECTRAMAX® Plus^384 (high-throughput microplate spectrophotometer; Molecular Devices Corp., Sunnyvale, Calif.). Maximum rates of metabolism were then compared to those in control wells (without inhibitors), and percentages of enzyme inhibition were calculated for each concentration of inhibitor. The concentration of inhibitor needed to reduce the initial rate of hydrolysis of substrate by 50% (IC50) was calculated as the residual activity of β-lactamase at 486 nm using the SoftMax Pro 5.0 software (Molecular Devices Corp.).

P99 AmpC β-lactamase = target: T2, P99 AmpC β-lactamase (Enterobacter cloacae, UniProt P05364); format: biochemical
T2 construct: The β-lactamases were extracted by four cycles of freezing and thawing followed by centrifugation; endogenous in cells; host or cells: Enterobacter cloacae cells containing P99 (crude freeze-thaw extract)
T2 sequence (P05364 21-381): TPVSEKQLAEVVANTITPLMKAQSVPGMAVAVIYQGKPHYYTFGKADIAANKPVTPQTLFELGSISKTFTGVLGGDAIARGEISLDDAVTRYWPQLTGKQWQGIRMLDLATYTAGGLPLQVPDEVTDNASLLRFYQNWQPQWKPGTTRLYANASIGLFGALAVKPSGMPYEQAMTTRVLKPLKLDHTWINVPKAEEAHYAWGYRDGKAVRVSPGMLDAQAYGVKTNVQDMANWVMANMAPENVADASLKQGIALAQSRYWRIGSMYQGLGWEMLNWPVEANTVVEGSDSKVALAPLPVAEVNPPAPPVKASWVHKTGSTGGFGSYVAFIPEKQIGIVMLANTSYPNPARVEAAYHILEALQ
Experimental: as §1, §2

CTXM-15 β-lactamase = target: T3, CTXM-15 β-lactamase (Escherichia coli, UniProt Q9EXV5); format: biochemical; conditions: crude enzyme extract, 10 min preincubation at 37° C., nitrocefin 100 μM, PBS pH 7.0; read-out: CTXM-15 IC50 Range
T3 construct: The β-lactamases were extracted by four cycles of freezing and thawing followed by centrifugation; endogenous in cells; host or cells: Escherichia coli cells containing CTXM-15 (crude freeze-thaw extract)
T3 sequence (Q9EXV5 29-291): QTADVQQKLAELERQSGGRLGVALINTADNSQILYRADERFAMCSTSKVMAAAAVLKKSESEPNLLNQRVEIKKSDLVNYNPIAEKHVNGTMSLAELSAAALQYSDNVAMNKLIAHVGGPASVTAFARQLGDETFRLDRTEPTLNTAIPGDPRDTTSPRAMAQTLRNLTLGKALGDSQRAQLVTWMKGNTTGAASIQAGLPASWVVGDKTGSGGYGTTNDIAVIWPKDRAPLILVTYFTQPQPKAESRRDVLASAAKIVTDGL
Experimental: as §1, §2

[1] = crude enzyme extract, 10 min preincubation at 37° C., nitrocefin 100 μM, PBS pH 7.0, read-out: SHV-5 IC50 Range
[2] = crude enzyme extract, 10 min preincubation at 37° C., nitrocefin 100 μM, PBS pH 7.0, read-out: P99 AmpC IC50 Range

## O=C(Cc1cccs1)N[C@@H](Cc1ccc(Cl)c(C(=O)O)c1)B(O)O [Example 18, (1R)-1-(2-thiophene-2-yl-acetylamino)-2-(3-carboxy-4-chlorophenyl)ethyl-1-boronic acid]
SHV-5 β-lactamase; [1]
  IC50: < 100 nM
P99 AmpC β-lactamase; [2]
  IC50: 100 to 1000 nM

## COc1ccc(CC(=O)N[C@@H](Cc2cccc(C(=O)O)c2)B(O)O)cc1 [Example 25, (1R)-1-(4-Methoxyphenylacetylamino)-2-(3-carboxyphenyl)ethyl-1-boronic acid]
SHV-5 β-lactamase; [1]
  IC50: < 100 nM
CTXM-15 β-lactamase
  IC50: < 100 nM
P99 AmpC β-lactamase; [2]
  IC50: 100 to 1000 nM

## O=C(CCCc1cccs1)N[C@@H](Cc1cccc(C(=O)O)c1)B(O)O [Example 35, (1R)-1-(4-Thiophen-2-yl-butyrylamino)-2-(3-carboxyphenyl)ethyl-1-boronic acid]
SHV-5 β-lactamase; [1]
  IC50: 100 to 1000 nM
CTXM-15 β-lactamase
  IC50: 100 to 1000 nM
P99 AmpC β-lactamase; [2]
  IC50: > 1000 nM

## O=C(Cc1cccc(Br)c1)N[C@@H](Cc1cccc(C(=O)O)c1)B(O)O [Example 7, (1R)-1-(3-Bromophenylacetylamino)-2-(3-carboxyphenyl)ethyl-1-boronic acid]
SHV-5 β-lactamase; [1]
  IC50: 100 to 1000 nM
P99 AmpC β-lactamase; [2]
  IC50: 100 to 1000 nM

## O=C(Cc1ccc(Br)cc1)N[C@@H](Cc1cccc(C(=O)O)c1)B(O)O [Example 16, (1R)-1-(4-Bromophenylacetylamino)-2-(3-carboxyphenyl)ethyl-1-boronic acid]
SHV-5 β-lactamase; [1]
  IC50: 100 to 1000 nM
P99 AmpC β-lactamase; [2]
  IC50: > 1000 nM

## O=C(O)COc1cccc(CC(=O)N[C@@H](Cc2cccc(C(=O)O)c2)B(O)O)c1 [Example 27, (1R)-1-(2-(3-carboxymethoxy)phenylacetylamino)-2-(3-carboxyphenyl)ethyl-1-boronic acid]
SHV-5 β-lactamase; [1]
  IC50: < 100 nM
CTXM-15 β-lactamase
  IC50: 100 to 1000 nM
P99 AmpC β-lactamase; [2]
  IC50: 100 to 1000 nM

## NCCCOc1cccc(CC(=O)N[C@@H](Cc2cccc(C(=O)O)c2)B(O)O)c1 [Example 31, (1R)-1-{2-[3-(3-Amino-propyloxy)-phenyl]-acetylamino}-2-(3-carboxyphenyl)ethyl-1-boronic acid hydrochloride]
SHV-5 β-lactamase; [1]
  IC50: 100 to 1000 nM
CTXM-15 β-lactamase
  IC50: 100 to 1000 nM
P99 AmpC β-lactamase; [2]
  IC50: 100 to 1000 nM

## O=C(CCC(=NO)c1cccs1)N[C@@H](Cc1cccc(C(=O)O)c1)B(O)O [Example 37, (1R)-1-(4-Hydroxyimino-4-thiophen-2-yl-butyrylamino)-2-(3-carboxyphenyl)ethyl-1-boronic acid]
SHV-5 β-lactamase; [1]
  IC50: > 1000 nM
CTXM-15 β-lactamase
  IC50: 100 to 1000 nM
P99 AmpC β-lactamase; [2]
  IC50: 100 to 1000 nM

## O=C(CCc1cccs1)N[C@@H](Cc1cccc(C(=O)O)c1)B(O)O [Example 10, (1R)-1-(3-thiophene-2-yl-propionylamino)-2-(3-carboxyphenyl)ethyl-1-boronic acid]
SHV-5 β-lactamase; [1]
  IC50: > 1000 nM
CTXM-15 β-lactamase
  IC50: 100 to 1000 nM
P99 AmpC β-lactamase; [2]
  IC50: > 1000 nM

## O=C(Cc1cccc(C(F)(F)F)c1)N[C@@H](Cc1cccc(C(=O)O)c1)B(O)O [Example 8, (1R)-1-(3-Trifluoromethylphenylacetylamino)-2-(3-carboxyphenyl)ethyl-1-boronic acid]
SHV-5 β-lactamase; [1]
  IC50: 100 to 1000 nM
CTXM-15 β-lactamase
  IC50: 100 to 1000 nM
P99 AmpC β-lactamase; [2]
  IC50: > 1000 nM

## O=C(Cc1ccc(Cl)cc1)N[C@@H](Cc1cccc(C(=O)O)c1)B(O)O [Example 19, (1R)-1-(4-Chlorophenylacetylamino)-2-(3-carboxyphenyl)ethyl-1-boronic acid]
SHV-5 β-lactamase; [1]
  IC50: < 100 nM
CTXM-15 β-lactamase
  IC50: < 100 nM
P99 AmpC β-lactamase; [2]
  IC50: 100 to 1000 nM

## O=C(Cc1cccc2ccccc12)N[C@@H](Cc1cccc(C(=O)O)c1)B(O)O [Example 15, (1R)-1-(2-naphthalen-1-yl-acetylamino)-2-(3-carboxyphenyl)ethyl-1-boronic acid]
SHV-5 β-lactamase; [1]
  IC50: > 1000 nM
P99 AmpC β-lactamase; [2]
  IC50: > 1000 nM

## COc1ccc(CC(=O)N[C@@H](Cc2cccc(C(=O)O)c2)B(O)O)c(Br)c1 [Example 26, (1R)-1-(2-Bromo-4-methoxyphenylacetylamino)-2-(3-carboxyphenyl)ethyl-1-boronic acid]
SHV-5 β-lactamase; [1]
  IC50: 100 to 1000 nM
CTXM-15 β-lactamase
  IC50: 100 to 1000 nM
P99 AmpC β-lactamase; [2]
  IC50: 100 to 1000 nM

## O=C(Cc1ccc(C(F)(F)F)cc1)N[C@@H](Cc1cccc(C(=O)O)c1)B(O)O [Example 9, (1R)-1-(4-Trifluoromethylphenylacetylamino)-2-(3-carboxyphenyl)ethyl-1-boronic acid]
SHV-5 β-lactamase; [1]
  IC50: < 100 nM
CTXM-15 β-lactamase
  IC50: < 100 nM
P99 AmpC β-lactamase; [2]
  IC50: 100 to 1000 nM

## COc1ccc(C(=O)CCC(=O)N[C@@H](Cc2cccc(C(=O)O)c2)B(O)O)cc1 [Example 38, (1R)-1-(4-(4-Methoxy-phenyl)-4-oxo-butyrylamino)-2-(3-carboxyphenyl)ethyl-1-boronic acid]
SHV-5 β-lactamase; [1]
  IC50: 100 to 1000 nM
CTXM-15 β-lactamase
  IC50: 100 to 1000 nM
P99 AmpC β-lactamase; [2]
  IC50: 100 to 1000 nM

## O=C(Cc1ccc2ccccc2c1)N[C@@H](Cc1cccc(C(=O)O)c1)B(O)O [Example 23, (1R)-1-(2-naphthalen-2-yl-acetylamino)-2-(3-carboxyphenyl)ethyl-1-boronic acid]
SHV-5 β-lactamase; [1]
  IC50: < 100 nM
CTXM-15 β-lactamase
  IC50: < 100 nM
P99 AmpC β-lactamase; [2]
  IC50: < 100 nM

## O=C(Cc1cccc(C(=O)O)c1)N[C@@H](Cc1cccc(C(=O)O)c1)B(O)O [Example 17, (1R)-1-(3-Carboxyphenylacetylamino)-2-(3-carboxyphenyl)ethyl-1-boronic acid]
SHV-5 β-lactamase; [1]
  IC50: 100 to 1000 nM
P99 AmpC β-lactamase; [2]
  IC50: > 1000 nM

## O=C(Cc1cccc(Cl)c1)N[C@@H](Cc1cccc(C(=O)O)c1)B(O)O [Example 3, (1R)-1-(3-Chlorophenylacetylamino)-2-(3-carboxyphenyl)ethyl-1-boronic acid]
SHV-5 β-lactamase; [1]
  IC50: < 100 nM
CTXM-15 β-lactamase
  IC50: < 100 nM
P99 AmpC β-lactamase; [2]
  IC50: 100 to 1000 nM

## O=C(Cc1cc(F)ccc1F)N[C@@H](Cc1cccc(C(=O)O)c1)B(O)O [Example 6, (1R)-1-(2,5-Difluorophenylacetylamino)-2-(3-carboxyphenyl)ethyl-1-boronic acid]
SHV-5 β-lactamase; [1]
  IC50: < 100 nM
P99 AmpC β-lactamase; [2]
  IC50: 100 to 1000 nM

## O=C(Cc1ccccc1Cl)N[C@@H](Cc1cccc(C(=O)O)c1)B(O)O [Example 24, (1R)-1-(2-Chlorophenylacetylamino)-2-(3-carboxyphenyl)ethyl-1-boronic acid]
SHV-5 β-lactamase; [1]
  IC50: < 100 nM
CTXM-15 β-lactamase
  IC50: > 1000 nM
P99 AmpC β-lactamase; [2]
  IC50: 100 to 1000 nM

## Cc1ccc(C(=O)O)cc1C[C@H](NC(=O)Cc1cccs1)B(O)O [Example 13, (1R)-1-(2-thiophene-2-yl-acetylamino)-2-(5-carboxy-2-methylphenyl)ethyl-1-boronic acid]
SHV-5 β-lactamase; [1]
  IC50: < 100 nM
CTXM-15 β-lactamase
  IC50: 100 to 1000 nM
P99 AmpC β-lactamase; [2]
  IC50: > 1000 nM

## CC(CO)Oc1cccc(CC(=O)N[C@@H](Cc2cccc(C(=O)O)c2)B(O)O)c1 (stereo partly drawn) [Example 32, (1R)-1-{2-[3-(2-Hydroxy-1-methyl-ethoxy)-phenyl]-acetylamino}-2-(3-carboxyphenyl)ethyl-1-boronic acid]
SHV-5 β-lactamase; [1]
  IC50: < 100 nM
CTXM-15 β-lactamase
  IC50: < 100 nM
P99 AmpC β-lactamase; [2]
  IC50: 100 to 1000 nM

## CN1CCC(Oc2cccc(CC(=O)NC(Cc3cccc(C(=O)O)c3)B(O)O)c2)C1 [Example 28, (1R)-1-(2-[3-(1-methyl-pyrrolidin-3-yloxy)-phenyl]-acetylamino)-2-(3-carboxyphenyl)ethyl-1-boronic acid]
SHV-5 β-lactamase
  IC50: 100 to 1000 nM
CTXM-15 β-lactamase
  IC50: 100 to 1000 nM
P99 AmpC β-lactamase
  IC50: < 100 nM

## COc1ccc(OC)c(CC(=O)N[C@@H](Cc2cccc(C(=O)O)c2)B(O)O)c1 [Example 4, (1R)-1-(2,5-Dimethoxyphenylacetylamino)-2-(3-carboxyphenyl)ethyl-1-boronic acid]
SHV-5 β-lactamase; [1]
  IC50: > 1000 nM
P99 AmpC β-lactamase; [2]
  IC50: 100 to 1000 nM

## O=C(CC1CCCCC1)N[C@@H](Cc1cccc(C(=O)O)c1)B(O)O [Example 5, (1R)-1-(Cyclohexylacetylamino)-2-(3-carboxyphenyl)ethyl-1-boronic acid]
SHV-5 β-lactamase; [1]
  IC50: > 1000 nM
P99 AmpC β-lactamase; [2]
  IC50: > 1000 nM

## Cn1c(CC(=O)N[C@@H](Cc2cccc(C(=O)O)c2)B(O)O)cc2ccccc21 [Example 14]
SHV-5 β-lactamase; [1]
  IC50: < 100 nM
CTXM-15 β-lactamase
  IC50: 100 to 1000 nM
P99 AmpC β-lactamase; [2]
  IC50: 100 to 1000 nM

## O=C(Cc1ccccc1Br)N[C@@H](Cc1cccc(C(=O)O)c1)B(O)O [Example 20, (1R)-1-(2-Bromophenylacetylamino)-2-(3-carboxyphenyl)ethyl-1-boronic acid]
SHV-5 β-lactamase; [1]
  IC50: 100 to 1000 nM
P99 AmpC β-lactamase; [2]
  IC50: 100 to 1000 nM
